# According to patent US20080255240A1, “Sulfonamide Derivatives” (Novo Nordisk A/S, priority 2004, published 2008):
# Structures can show the parent of a compound that is named as a salt.
row,SMILES,melting point [°C]
1,"Cc1cc(C(C)(C)C)c(O)c(S(=O)(=O)Nc2ccc(C#N)cc2Cl)c1 [Example 3, 3-tert-Butyl-N-(2-chloro-4-cyano-phenyl)-2-hydroxy-5-methyl-benzenesulfonamide]",101 to 105
2,Cc1cc(C(C)(C)C)c(O)c(S(=O)(=O)Nc2ccc(C#N)c(C(F)(F)F)c2)c1,159 to 162
3,"Cc1cc(C(C)(C)C)c(O)c(S(=O)(=O)Nc2ccc(I)cc2)c1 [Example 4, 3-tert-Butyl-2-hydroxy-N-(4-iodo-phenyl)-5-methyl-benzenesulfonamide]",184 to 185
4,"COc1ccc(NS(=O)(=O)c2cc(C)cc(C(C)(C)C)c2O)cc1 [Example 5, 3-tert-Butyl-2-hydroxy-N-(4-methoxy-phenyl)-5-methyl-benzenesulfonamide]",130 to 134

# The next lines start with the values.
row,melting point [°C],SMILES
1,106 to 108,"CCC(C)c1cc(C(C)(C)C)c(O)c(S(=O)(=O)Nc2ccc([N+](=O)[O-])cc2Cl)c1 (stereo not shown) (as salt: Na) [Example 7, 5-sec-Butyl-3-tert-butyl-N-(2-chloro-4-nitro-phenyl)-2-hydroxy-benzenesulfonamide]"
2,158 to 161,"CC(C)(C)c1cc(C(C)(C)C)c(O)c(S(=O)(=O)Nc2ccc([N+](=O)[O-])cc2Cl)c1 [Example 6, 3,5-Di-tert-butyl-N-(2-chloro-4-nitro-phenyl)-2-hydroxy-benzenesulfonamide]"
3,239 to 243,"Cc1cc(C(C)(C)C)c(O)c(S(=O)(=O)Nc2ccc([N+](=O)[O-])cc2Cl)c1 [Example 1, 3-tert-Butyl-N-(2-chloro-4-nitro-phenyl)-2-hydroxy-5-methyl-benzenesulfonamide]"
